Measured values as given in patent publication US20220324865A1 (Bayer Aktiengesellschaft, priority 2018, published 2022).

Target: T1, human EP3 receptor (Homo sapiens, UniProt P43115)
T1 construct: expressed in transfected cells; host or cells: CHO K1 (Chinese Hamster Ovary), stably co-transfected with Galpha16 and mitochondrial clytin
T1 sequence (P43115 1-390): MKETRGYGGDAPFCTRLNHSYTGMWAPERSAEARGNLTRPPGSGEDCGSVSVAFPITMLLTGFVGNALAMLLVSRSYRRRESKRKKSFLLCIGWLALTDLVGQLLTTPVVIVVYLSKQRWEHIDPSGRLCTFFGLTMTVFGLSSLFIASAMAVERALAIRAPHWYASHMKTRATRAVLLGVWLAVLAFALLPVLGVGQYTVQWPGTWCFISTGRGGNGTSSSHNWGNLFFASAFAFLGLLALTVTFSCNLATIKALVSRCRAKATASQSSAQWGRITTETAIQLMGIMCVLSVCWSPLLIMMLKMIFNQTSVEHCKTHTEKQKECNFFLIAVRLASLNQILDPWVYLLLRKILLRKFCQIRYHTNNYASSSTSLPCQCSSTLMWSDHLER
Experiment: Cellular in vitro assay for determining EP3 receptor activity (human EP3 cell line, sulprostone-stimulated calcium luminescence)
Assay type: cell-based
Conditions: CHO cells expressing human EP3 and mitochondrial Clytin; antagonist mode, sulprostone at EC50; read-out: EP3 CHO mtCLY ANTAG IC50
How it was run: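 Antagonist activity was measured as inhibition of the luminescent calcium signal elicited by EC50 sulprostone, following 10 min compound pretreatment. The cell line was recombinant CHO K1 co-expressing human EP3, Gα16 and the photoprotein Clytin, reconstituted with coelenterazine.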

Row | Compound | IC50 [nM]
1 | CC(C)C(NC(=O)c1cc2c(=O)[nH]c(-c3ccc4ccccc4c3)cn2n1)c1cccs1 (stereo not drawn) [Example 2-38, N-[2-Methyl-1-(2-thienyl)propyl]-6-(2-naphthyl)-4-oxo-4,5-dihydropyrazolo[1,5-a]pyrazine-2-carboxamide] | 2.05
2 | N#Cc1c(C(=O)NC2(c3ccccc3)CC2)nn2cc(-c3ccc4ccccc4c3)[nH]c(=O)c12 [Example 3-49, 3-Cyano-6-(naphthalen-2-yl)-4-oxo-N-(1-phenylcyclopropyl)-4,5-dihydropyrazolo[1,5-a]pyrazine-2-carboxamide] | 1.35
3 | Cc1c(C(=O)NCc2cccc(CN3CCCC3)c2)nn2c(C)c(-c3ccc4ccccc4c3)[nH]c(=O)c12 [Example 3-36, 3,7-Dimethyl-6-(naphthalen-2-yl)-4-oxo-N-({3-[(pyrrolidin-1-yl)methyl]phenyl}methyl)-4,5-dihydropyrazolo[1,5-a]pyrazine-2-carboxamide] | 6.55
4 | Cc1ccc(-c2cn3nc(C(=O)N[C@@H](c4ccc(F)cc4)C(C)(C)O)c(C(F)(F)F)c3c(=O)[nH]2)cc1Cl [Example 1-151, 6-(3-Chloro-4-methylphenyl)-N-[(1S)-1-(4-fluorophenyl)-2-hydroxy-2-methylpropyl]-4-oxo-3-(trifluoromethyl)-4,5-dihydropyrazolo[1,5-a]pyrazine-2-carboxamide] | 1.15
5 | Cc1cccc2ncc(-c3cn4nc(C(=O)NC5(C)CCS(=O)(=O)C5)c(C(C)C)c4c(=O)[nH]3)cc12 (stereo not drawn) [Example 4-17, 3-Isopropyl-N-(3-methyl-1,1-dioxothiolan-3-yl)-6-(5-methyl-3-quinolyl)-4-oxo-5H-pyrazolo[1,5-a]pyrazine-2-carboxamide] | 2.45
6 | Cc1ccc(-c2cn3nc(C(=O)NCC(O)C(F)(F)F)c(C4CC4)c3c(=O)[nH]2)cc1F (single isomer, unassigned; enantiomer2) [Example 1-161, 3-Cyclopropyl-6-(3-fluoro-4-methylphenyl)-4-oxo-N-(3,3,3-trifluoro-2-hydroxpropyl)-4,5-dihydropyrazolo[1,5-a]pyrazine-2-carboxamide (enantiomer2)] | 5.7
7 | Cc1cccc2ncc(-c3cn4nc(C(=O)N[C@@H](CO)c5ccccc5)c(C(C)C)c4c(=O)[nH]3)cc12 [Example 4-67, N-[(7R)-2-Hydroxy-1-phenylethyl]-6-(5-methylquinolin-3-yl)-4-oxo-3-(propan-2-yl)-4,5-dihydropyrazolo[1,5-a]pyrazine-2-carboxamide] | 1.55
8 | Cc1cccc2ncc(-c3cn4nc(C(=O)NCc5cccc(CN(C)C)c5)c(C(C)C)c4c(=O)[nH]3)cc12 [Example 4-2, N-({3-[(Dimethylamino)methyl]phenyl}methyl)-6-(5-methylquinolin-3-yl)-4-oxo-3-(propan-2-yl)-4,5-dihydropyrazolo[1,5-a]pyrazine-2-carboxamide] | 2.8
9 | CC[C@@H](C)NC(=O)c1nn2cc(-c3ccc(C)c(Cl)c3)[nH]c(=O)c2c1C [Example 1-149, N-[(2R)-Butan-2-yl]-6-(3-chloro-4-methylphenyl)-3-methyl-4-oxo-4,5-dihydropyrazolo[1,5-a]-pyrazine-2-carboxamide] | 2.33
10 | O=C(N[C@H](CCO)c1ccc(F)cc1)c1cc2c(=O)[nH]c(-c3ccc4c(c3)CCCC4)cn2n1 [Example 1-100, N-[(1R)-1-(4-Fluorophenyl)-3-hydroxypropyl]-4-oxo-6-(5,6,7,8-tetrahydronaphthalen-2-yl)-4,5-dihydropyrazolo[1,5-a]pyrazine-2-carboxamide] | 0.965
11 | CCN(CCO)CC(NC(=O)c1nn2cc(-c3ccc4ccccc4c3)[nH]c(=O)c2c1C(F)(F)F)c1ccccc1 (stereo not drawn) [Example 1-28, N-[2-[Ethyl(2-hydroxyethyl)amino]-1-phenylethyl]-6-(2-naphthyl)-4-oxo-3-(trifluoromethyl)-5H-pyrazolo[1,5-a]pyrazine-2-carboxamide] | 0.855
12 | CC(C)(O)[C@@H](NC(=O)c1cc2c(=O)[nH]c(-c3ccc4ccccc4c3)cn2n1)c1ccc(F)cc1 [Example 1-29, N-[(1S)-1-(4-Fluorophenyl)-2-hydroxy-2-methylpropyl]-6-(naphthalen-2-yl)-4-oxo-4,5-dihydropyrazolo[1,5-a]pyrazine-2-carboxamide] | 1.55
13 | Cc1cccc2ncc(-c3cn4nc(C(=O)NCC(C)Cn5cccn5)c(C(C)C)c4c(=O)[nH]3)cc12 (stereo not drawn) [Example 4-30, 3-Isopropyl-N-[2-methyl-3-(1H-pyrazol-1-yl)propyl]-6-(5-methylquinolin-3-yl)-4-oxo-4,5-dihydropyrazolo[1,5-a]pyrazine-2-carboxamide] | 2.7
14 | N#Cc1c(C(=O)NCCn2ccc(C3CC3)n2)nn2cc(-c3ccc4ccccc4c3)[nH]c(=O)c12 [Example 3-77, 3-Cyano-N-[2-(3-cyclopropyl-1H-pyrazol-1-yl)ethyl]-6-(naphthalen-2-yl)-4-oxo-4,5-dihydropyrazolo[1,5-a]pyrazine-2-carboxamide] | 4.65

Results, then the compound that gave them:

Row | IC50 [nM] | Compound
15 | 1.65 | Cc1cc(-c2cn3nc(C(=O)NCC(O)C(F)(F)F)c(C4CC4)c3c(=O)[nH]2)ccc1Cl (single isomer, unassigned) [6-313]
16 | 0.59 | CC[C@@H](C)NC(=O)c1nn2cc(-c3ccc4ccccc4c3)[nH]c(=O)c2c1C(F)(F)F [6-511]
17 | 5.3 | Cc1cc(-c2cn3nc(C(=O)N[C@H](C)C4CC4)c(C(F)(F)C(F)(F)F)c3c(=O)[nH]2)ccc1Cl [6-476]
18 | 8.55 | O=C(N[C@@H](c1ccc(F)cc1)C(F)(F)CO)c1nn2cc(-c3ccc(Cl)c(F)c3)[nH]c(=O)c2c1C(F)F [6-631]
19 | 3.85 | Cc1ccc(-c2cn3nc(C(=O)NCC(O)C(F)(F)F)c(C(F)(F)F)c3c(=O)[nH]2)cc1C (single isomer, unassigned) [6-117]
20 | 6.6 | Cc1ccc(-c2cn3nc(C(=O)NCC(N)C(F)(F)F)c(C4CC4)c3c(=O)[nH]2)cc1F (racemic) [6-395]
21 | 1.09 | O=C(N[C@H](CCO)c1ccc(F)cc1)c1nn2cc(-c3ccc(Cl)c(C(F)F)c3)[nH]c(=O)c2c1C1CC1 [6-668]
22 | 0.78 | CCCc1c(C(=O)NC2(c3ccc(F)cc3)CN(C)C2)nn2cc(-c3ccc(C)c(C)c3)[nH]c(=O)c12 [6-616]
23 | 3.35 | CC(C)c1c(C(=O)NC2(c3ccc(F)cc3)CN(C)C2)nn2cc(-c3cccc(Cl)c3)[nH]c(=O)c12 [6-684]
24 | 0.97 | Cc1ccc(-c2cn3nc(C(=O)NC4(c5ccc(F)cc5)CN(CC(F)F)C4)c(C(F)(F)F)c3c(=O)[nH]2)cc1Cl [6-202]
25 | 1.45 | Cc1cc(-c2cn3nc(C(=O)NC(c4ccc(F)cc4)C4(O)CC4)c(C(F)(F)F)c3c(=O)[nH]2)ccc1Cl (racemic) [6-210]
26 | 0.92 | Cc1ccc(-c2cn3nc(C(=O)N[C@@H](c4ccc(F)cc4)C(F)(F)CO)c(C(F)(F)F)c3c(=O)[nH]2)cc1Cl [6-157]
27 | 1.14 | CCn1cc(CNC(=O)c2nn3cc(-c4ccc(C)c(C)c4)[nH]c(=O)c3c2Cl)c(C)n1 [6-112]
28 | 4 | Cc1cc(-c2cn3nc(C(=O)NC4(c5ccc(F)cc5)CN(C)C4)c(C4CC4)c3c(=O)[nH]2)ccc1Cl [6-333]
29 | 5.07 | Cc1ccc(-c2cn3nc(C(=O)N[C@@]4(C)CCS(=O)(=O)C4)c(C4CC4)c3c(=O)[nH]2)cc1F (racemic) [6-376]
30 | 0.68 | O=C(NC(c1ccc(F)cc1)C1(O)CC1)c1nn2cc(-c3ccc(Cl)c(Cl)c3)[nH]c(=O)c2c1C1CC1 (single isomer, unassigned) [6-424]
31 | 4 | CC(C)(O)[C@@H](NC(=O)c1nn2cc(-c3ccc4ccccc4c3)[nH]c(=O)c2c1C#N)c1ccc(F)cc1 [6-110]
32 | 5 | Cc1ccc(-c2cn3nc(C(=O)NC4(c5ccc(F)cc5)CC4)cc3c(=O)[nH]2)cc1C(F)(F)F [6-26]
33 | 3.8 | Cc1cc(-c2cn3nc(C(=O)N[C@@H](c4ccc(F)cc4)C(F)(F)CO)c(C(C)C)c3c(=O)[nH]2)ccc1Cl [6-605]
34 | 1.6 | Cc1cc(-c2cn3nc(C(=O)NC4(c5ccccc5)CCOCC4)c(C(F)(F)F)c3c(=O)[nH]2)ccc1Cl [6-230]
35 | 1.6 | Cc1cc(-c2cn3nc(C(=O)N[C@@H](C)C4CC4)c(C4CC4)c3c(=O)[nH]2)ccc1Cl [6-296]
36 | 5.8 | Cc1ccc(-c2cn3nc(C(=O)NC(C)C(O)C(F)(F)F)cc3c(=O)[nH]2)cc1C (stereo not drawn) [6-355]
37 | 0.95 | CC(C)[C@@H](C)NC(=O)c1nn2cc(-c3ccc4ccccc4c3)[nH]c(=O)c2c1C(F)(F)F [6-512]
38 | 1.9 | Cc1cc(-c2cn3nc(C(=O)N[C@@H](C)C4CC4)c(C(C)C)c3c(=O)[nH]2)ccc1Cl [6-608]
39 | 3.1 | Cc1cc(-c2cn3nc(C(=O)NC4(c5ccc(F)cc5)CN(CC(F)F)C4)c(C(F)(F)F)c3c(=O)[nH]2)ccc1Cl [6-239]
40 | 6.75 | O=C(NC1CCN(C2CC2)C1)c1nn2cc(-c3ccc4ccccc4c3)[nH]c(=O)c2c1C(F)(F)F (single isomer, unassigned) [6-500]
41 | 0.88 | Cc1ccc(-c2cn3nc(C(=O)NC(C)c4ccc(O)cc4)cc3c(=O)[nH]2)cc1C (single isomer, unassigned) [6-349]
42 | 6.7 | COCc1c(C(=O)N[C@@H](c2ccc(F)cc2)C(F)(F)CO)nn2cc(-c3ccc(Cl)c(F)c3)[nH]c(=O)c12 [6-624]
